Assay results reported in patent US20040192751A1, “Amino acid composition for ameliorating liver failure” (priority 2001, published 2004).

What was measured:
[1] = tested on: mice in which alcoholic functional disorders of a liver were developed; assay: Total cholesterol amount in the liver 12 hours after ethanol administration; format: in vivo; details: 12 hours following the ethanol administration; control = no administration
Protocol: (§1) Measurements were conducted using a clinical diagnosis kit available from Wako Pure Chemical Industries, Ltd.
The following reagents were used for the measurement of the total cholesterol.
The action of the color generating agent to a specimen to be measured decomposes the cholesterols into the liberated cholesterols and fatty acids by the action of the cholesterol esterase. The cholesterols thus generated together with the liberated cholesterols already existing are oxidized to produce hydrogen peroxide by means of the action of the cholesterol oxidase. The hydrogen peroxide thus produced quantitatively and oxidatively condenses the phenols and 4-aminoantipyrine to generate red pigment (red quinone-based pigment, refer to Formula 3) by the action of the peroxidase (POD).
The concentration of the total cholesterol in the specimen was determined by measuring the red absorbance.
After 0.01 ml of the specimen was dissolved in isopropanol, 1.5ml of the color producing agent was added therein followed by heating at 37° C. for 10 minutes under sufficient agitation. The absorbance of the specimen at 505 nm was measured by using a blind specimen as reference by means of a spectrophotometer. […]

[2] = tested on: mice in which alcoholic functional disorders of a liver were developed; assay: Serum GOT concentration 12 hours after ethanol administration in mice pre-administered amino acid compositions; format: in vivo; details: judged from GOT and GPT values 12 h after ethanol
Protocol: In the present Examples, outbreak and healing of functional disorders of a liver were judged by employing GOT (Glutamic Oxaloacetic Transaminase), GPT (Glutamic Pyruvic Transaminase), total cholesterol and triglyceride which are indexes for functional disorders of the liver.
as §1
The following reagents were used for measurement of GOT.
The action of the substrate enzyme liquid to a specimen to be measured generates glutamic acid and oxalacetic acid from L-aspartic acid and α-keto glutaric acid, respectively, by means of GOT in the specimen. […]
The hydrogen peroxide thus produced quantitatively and oxidatively condenses the TOOS and 4-aminoantipyrine to generate violet pigment (refer to Formula 1) by the action of the co-existing peroxidase (POD).
The active value of the GOT in the specimen is measured by the violet absorbance. The ascorbic acid contained in the specimen is decomposed by the ascorbic acid oxidase contained in the substrate enzyme liquid, thereby affecting little influence on the measured value. […]
After a standard specimen having a known concentration prepared by using the standard liquid was preliminarily heated and the substrate buffer was added thereto, the absorbance of the standard specimen was measured and a calibration curve was prepared using the measured values. […]

SMILES | total cholesterol in the liver, compared with control (FIG. 5) [1] | action for improving functional disorders of the liver using GOT and GPT as the indexes [2]
N[C@@H](Cc1ccc(O)cc1)C(=O)O [0.25% Tyr, tyrosine] | values lower than those of the control | next most effective
N[C@@H](Cc1c[nH]c2ccccc12)C(=O)O [2% Trp, tryptophane] | values lower than those of the control | next most effective
